29 compounds from US11739100B2, “2,3-dihydro-1h-imidazo{1,2-a}pyrimidin-5-one and this 1,2,3,4-tetrahydropyrimido{1,2-a}pyrimidin-6-one derivatives comprising a substituted morpholine, preparation thereof and pharmaceutical use thereof” (SANOFI, priority 2012, dated 2023) can be followed below.

The target in the experiment is T1, recombinant Vps34 (Homo sapiens, UniProt Q8NEB9).
T1 construct: purchased Invitrogen PV5126
Description: Phosphorylation of phosphatidylinositol (PI) by Vps34 in vitro, ADP detected by TR-FRET (HTRF Transcreener ADP). Particulars: 10 μM ATP, 55 μg/ml PI, approximately 3 nM Vps34, 1 hour at ambient temperature; absolute IC50, mean of two independent experiments; read-out: IC50 activity range. Type of experiment: biochemical. For orientation: In TR-FRET formats the signal depends on donor and acceptor labels being close together.

T1 sequence (Q8NEB9 whole entry): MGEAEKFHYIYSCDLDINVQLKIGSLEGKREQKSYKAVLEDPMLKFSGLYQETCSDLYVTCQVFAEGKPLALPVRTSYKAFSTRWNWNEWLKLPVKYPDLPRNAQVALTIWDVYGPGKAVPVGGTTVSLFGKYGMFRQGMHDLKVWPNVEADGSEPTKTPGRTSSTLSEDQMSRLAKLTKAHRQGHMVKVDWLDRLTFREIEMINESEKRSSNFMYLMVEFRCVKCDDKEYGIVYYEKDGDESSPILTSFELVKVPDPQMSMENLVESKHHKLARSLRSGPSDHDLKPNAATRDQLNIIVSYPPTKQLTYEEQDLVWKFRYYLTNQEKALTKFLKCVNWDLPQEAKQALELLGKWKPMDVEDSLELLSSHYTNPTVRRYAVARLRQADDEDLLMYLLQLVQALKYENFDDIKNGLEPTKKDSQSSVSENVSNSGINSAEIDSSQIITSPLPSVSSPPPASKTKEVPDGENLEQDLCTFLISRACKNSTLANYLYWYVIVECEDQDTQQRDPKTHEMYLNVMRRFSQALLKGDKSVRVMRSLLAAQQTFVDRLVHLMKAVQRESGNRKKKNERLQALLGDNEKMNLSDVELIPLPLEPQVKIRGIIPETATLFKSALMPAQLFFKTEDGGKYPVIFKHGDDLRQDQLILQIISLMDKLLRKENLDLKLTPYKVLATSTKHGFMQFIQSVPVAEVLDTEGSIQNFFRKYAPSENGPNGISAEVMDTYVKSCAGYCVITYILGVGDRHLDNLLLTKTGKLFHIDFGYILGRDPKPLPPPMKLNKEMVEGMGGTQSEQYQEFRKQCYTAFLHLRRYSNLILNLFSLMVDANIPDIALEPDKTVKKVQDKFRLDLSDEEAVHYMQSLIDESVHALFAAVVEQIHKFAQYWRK

As a reminder, the IC50 is the concentration needed to halve the response being measured. With `C[C@@H]1COCCN1c1cc(=O)n2c(n1)N(Cc1ccnn1C(F)F)[C@H](C(F)(F)F)CC2` [Example 37, (S)-9-(2-Difluoromethyl-2H-pyrazol-3-ylmethyl)-2-((R)-3-methyl-morpholin-4-yl)-8-trifluoromethyl-6,7,8,9-tetrahydro-pyrimido[1,2-a]-pyrimidin-4-one], the half-maximal inhibitory concentration (IC50) is less than 0.01 µM. In the case of `COc1cc(C(=O)CN2c3nc(N4CCOC[C@H]4C)cc(=O)n3CC[C@H]2C(F)(F)F)ccn1` [Example 61, (S)-9-[2-(2-Methoxy-pyridin-4-yl)-2-oxo-ethyl]-2-((R)-3-methyl-morpholin-4-yl)-8-trifluoromethyl-6,7,8,9-tetrahydro-pyrimido[1,2-a]-pyrimidin-4-one], the IC50 is less than 0.01 µM. In the case of `C[C@@H]1COCCN1c1cc(=O)n2c(n1)N(Cc1ncco1)CC[C@@H]2C(F)(F)F` [Example 13, (R)-2-((R)-3-Methyl-morpholin-4-yl)-9-oxazol-2-ylmethyl-6-trifluoromethyl-6,7,8,9-tetrahydro-pyrimido[1,2-a]-pyrimidin-4-one], the IC50 lay within 0.01 to 0.1 µM.

Consider `C[C@@H]1COCCN1c1nc2n(c(=O)c1F)[C@@H](C(F)(F)F)CCN2CC(=O)C1CCOCC1` [Example 132, (R)-3-Fluoro-2-((R)-3-methylmorpholin-4-yl)-9-[2-oxo-2-(tetrahydro-pyran-4-yl)ethyl]-6-trifluoromethyl-6,7,8,9-tetrahydro-pyrimido[1,2-a]-pyrimidin-4-one], for which the IC50 is less than 0.01 µM.

Regarding `C[C@@H]1COCCN1c1nc2n(c(=O)c1F)C[C@@](C)(C(F)(F)F)N2Cc1ccnc(Cl)c1` [Example 184, (S)-1-(2-Chloro-pyridin-4-ylmethyl)-6-fluoro-2-methyl-7-((R)-3-methylmorpholin-4-yl)-2-trifluoromethyl-2,3-dihydro-1H-imidazo[1,2-a]-pyrimidin-5-one], the IC50 was less than 0.01 µM. On to `C[C@@H]1COCCN1c1cc(=O)n2c(n1)N(CC(=O)C1CCOCC1)CC[C@@H]2C(F)(F)F` [Example 131, (R)-2-((R)-3-Methyl-morpholin-4-yl)-9-[2-oxo-2-(tetrahydro-pyran-4-yl)ethyl]-6-trifluoromethyl-6,7,8,9-tetrahydro-pyrimido[1,2-a]-pyrimidin-4-one], for which the IC50 was less than 0.01 µM. Consider `CC(C)C(=O)CN1c2nc(N3CCOC[C@H]3C)cc(=O)n2CC[C@@]1(C)C(F)(F)F` [Example 252, (S)-8-Methyl-2-((R)-3-methylmorpholin-4-yl)-9-(3-methyl-2-oxo-butyl)-8-trifluoromethyl-6,7,8,9-tetrahydro-pyrimido[1,2-a]-pyrimidin-4-one], for which the IC50 was less than 0.01 µM.

With `O=c1cc(N2CC3CCC(C2)O3)nc2n1CC[C@@H](C(F)(F)F)N2Cc1ccno1` [Example 164, (S)-9-Isoxazol-5-yl-methyl-2-(8-oxa-3-azabicyclo[3.2.1]oct-3-yl)-8-trifluoromethyl-6,7,8,9-tetrahydro-pyrimido[1,2-a]-pyrimidin-4-one], the IC50 lay within 0.01 to 0.1 µM.

On to `C[C@@H]1COCCN1c1cc(=O)n2c(n1)N(CC1CCCCO1)[C@H](C(F)(F)F)CC2` (single isomer, unassigned) [Example 138], for which the IC50 was less than 0.01 µM. For the compound `CC1CN(c2cc(=O)n3c(n2)N(Cc2ccccc2)[C@H](C(F)(F)F)CC3)CCO1` (single isomer, unassigned) [Example 191], the IC50 fell in the range of 0.01 to 0.1 µM. Take `COCCN1c2nc(N3CCOC[C@H]3C)cc(=O)n2CC[C@H]1C(F)(F)F` [Example 90, (S)-9-(2-Methoxy-ethyl)-2-((R)-3-methyl-morpholin-4-yl)-8-trifluoromethyl-6,7,8,9-tetrahydro-pyrimido[1,2-a]-pyrimidin-4-one]: the IC50 was less than 0.01 µM. On to `C[C@@H]1COCCN1c1nc2n(c(=O)c1F)CC[C@@H](C(F)(F)F)N2Cc1nccs1` [Example 232, (S)-3-Fluoro-2-((R)-3-methylmorpholin-4-yl)-9-thiazol-2-ylmethyl-8-trifluoromethyl-6,7,8,9-tetrahydro-pyrimido[1,2-a]-pyrimidin-4-one], for which the IC50 was less than 0.01 µM. In the case of `C[C@@H]1COCCN1c1nc2n(c(=O)c1F)CC[C@@H](C(F)(F)F)N2CC(=O)c1ncccc1F` [Example 59, (S)-3-Fluoro-9-[2-(3-fluoropyridin-2-yl)-2-oxoethyl]-2-((R)-3-methylmorpholin-4-yl)-8-trifluoromethyl-6,7,8,9-tetrahydro-pyrimido[1,2-a]-pyrimidin-4-one], the IC50 is less than 0.01 µM. Consider `C[C@@H]1COCCN1c1cc(=O)n2c(n1)N(Cc1ccnnc1)[C@H](C(F)(F)F)CC2` [Example 259, (S)-2-((R)-3-methyl-morpholin-4-yl)-9-pyridazin-4-ylmethyl-8-trifluoromethyl-6,7,8,9-tetrahydro-pyrimido[1,2-a]-pyrimidin-4-one], for which the concentration for half-maximal inhibition (IC50) was less than 0.01 µM. On to `C[C@@H]1COCCN1c1cc(=O)n2c(n1)N(c1ccc(C3CC3)nc1)CC[C@@H]2C(F)(F)F` [Example 107, (R)-9-(6-Cyclopropyl-pyridin-3-yl)-2-((R)-3-methylmorpholin-4-yl)-6-trifluoromethyl-6,7,8,9-tetrahydro-pyrimido[1,2-a]-pyrimidin-4-one], for which the half-maximal inhibitory concentration (IC50) is less than 0.01 µM. Consider `C[C@@H]1COCCN1c1nc2n(c(=O)c1F)CC[C@@H](C(F)(F)F)N2Cc1cscn1` [Example 69, (S)-3-Fluoro-2-((R)-3-methylmorpholin-4-yl)-9-thiazol-4-ylmethyl-8-trifluoromethyl-6,7,8,9-tetrahydro-pyrimido[1,2-a]-pyrimidin-4-one], for which the 50% inhibitory concentration (IC50) was less than 0.01 µM. For `C[C@@H]1COCCN1c1cc(=O)n2c(n1)N(CC(=O)c1ccc(F)cn1)[C@H](C(F)(F)F)CC2` [Example 70, (S)-9-[2-(5-Fluoro-pyridin-2-yl)-2-oxo-ethyl]-2-((R)-3-methyl-morpholin-4-yl)-8-trifluoromethyl-6,7,8,9-tetrahydro-pyrimido[1,2-a]-pyrimidin-4-one] the value was less than 0.01 µM. The result for `C[C@@H]1COCCN1c1nc2n(c(=O)c1F)[C@@H](C(F)(F)F)CCN2Cc1ncco1` [Example 129, (R)-3-Fluoro-2-((R)-3-methylmorpholin-4-yl)-9-oxazol-2-ylmethyl-6-trifluoromethyl-6,7,8,9-tetrahydro-pyrimido[1,2-a]-pyrimidin-4-one] reads less than 0.01 µM; that for `CCC1CN(c2cc(=O)n3c(n2)N(CC(=O)c2ccccn2)[C@H](C(F)(F)F)CC3)CCO1` (single isomer, unassigned) [Example 172], greater than 0.1 µM. For the compound `Cc1noc(CN2c3nc(N4CCOC[C@H]4C)c(F)c(=O)n3C[C@@]2(C)C(F)(F)F)n1` [Example 207, (S)-6-Fluoro-2-methyl-7-((R)-3-methyl-morpholin-4-yl)-1-(3-methyl-[1,2,4]oxadiazol-5-yl-methyl)-2-trifluoromethyl-2,3-dihydro-1H-imidazo[1,2-a]-pyrimidin-5-one], the IC50 was less than 0.01 µM. Regarding `C[C@@H]1COCCN1c1cc(=O)n2c(n1)N(CC(=O)c1cccc(F)n1)[C@H](C(F)(F)F)CC2` [Example 63, (S)-9-[2-(6-Fluoro-pyridin-2-yl)-2-oxo-ethyl]-2-((R)-3-methyl-morpholin-4-yl)-8-trifluoromethyl-6,7,8,9-tetrahydro-pyrimido[1,2-a]-pyrimidin-4-one], the IC50 was less than 0.01 µM. As for `Cc1nc(CN2c3nc(N4CCOC[C@H]4C)cc(=O)n3CC[C@H]2C(F)(F)F)no1` [Example 2, (S)-2-((R)-3-Methyl-morpholin-4-yl)-9-(5-methyl-[1,2,4]oxadiazol-3-yl-methyl)-8-trifluoromethyl-6,7,8,9-tetrahydro-pyrimido[1,2-a]-pyrimidin-4-one], the IC50 was less than 0.01 µM. On to `CC(C)C(F)CN1c2nc(N3CCOC[C@H]3C)cc(=O)n2CC[C@H]1C(F)(F)F` (single isomer, unassigned) [Example 323], for which the IC50 is less than 0.01 µM. As for `C[C@@H]1COCCN1c1cc(=O)n2c(n1)N(Cc1ccno1)[C@H](C(F)(F)F)CC2` [Example 36, (S)-9-Isoxazol-5-yl-methyl-2-((R)-3-methylmorpholin-4-yl)-8-trifluoromethyl-6,7,8,9-tetrahydro-pyrimido[1,2-a]-pyrimidin-4-one], the IC50 is less than 0.01 µM. In the case of `O=c1cc(N2CC3CCC(C2)O3)nc2n1CC[C@@H](C(F)(F)F)N2Cc1ccn(C(F)F)n1` [Example 167, (S)-9-(1-Difluoromethyl-1H-pyrazol-3-ylmethyl)-2-(8-oxa-3-aza-bicyclo[3.2.1]oct-3-yl)-8-trifluoromethyl-6,7,8,9-tetrahydro-pyrimido[1,2-a]-pyrimidin-4-one], the IC50 was in the range of 0.01 to 0.1 µM.

As to `C[C@@H]1COCCN1c1nc2n(c(=O)c1F)CC[C@@H](C(F)(F)F)N2Cc1ccc(F)nc1` [Example 51, (S)-3-Fluoro-9-(6-fluoropyridin-3-yl-methyl)-2-((R)-3-methylmorpholin-4-yl)-8-trifluoromethyl-6,7,8,9-tetrahydro-pyrimido[1,2-a]-pyrimidin-4-one], the IC50 was less than 0.01 µM. On to `C[C@@H]1COCCN1c1nc2n(c(=O)c1F)CC[C@@H](C(F)(F)F)N2Cc1cncc(F)c1` [Example 57, (S)-3-Fluoro-9-(5-fluoropyridin-3-yl-methyl)-2-((R)-3-methylmorpholin-4-yl)-8-trifluoromethyl-6,7,8,9-tetrahydro-pyrimido[1,2-a]-pyrimidin-4-one], for which the IC50 is less than 0.01 µM. As to `O=C(CN1c2nc(N3CC4CCC(C3)O4)cc(=O)n2CC[C@H]1C(F)(F)F)C1CC1` [Example 271, (S)-9-(2-Cyclopropyl-2-oxoethyl)-2-(8-oxa-3-azabicyclo[3.2.1]oct-3-yl)-8-trifluoromethyl-6,7,8,9-tetrahydro-pyrimido[1,2-a]-pyrimidin-4-one], the IC50 is 0.01 to 0.1 µM. Consider `C[C@@H]1COCCN1c1cc(=O)n2c(n1)N(Cc1cncc(F)c1)[C@H](C(F)(F)F)CC2` [Example 94, (S)-9-(5-Fluoropyridin-3-ylmethyl)-2-((R)-3-methylmorpholin-4-yl)-8-trifluoromethyl-6,7,8,9-tetrahydro-pyrimido[1,2-a]-pyrimidin-4-one], for which the IC50 was less than 0.01 µM.
